Values joined by “and” are separate entries in the source; they are usually repeats but may differ in a detail not shown here. Identical values can stand only once. Numbers after ± are expanded uncertainties.
Conditions: Fluid (supercritical or subcritical phases); for mass density: Buoyancy - hydrostatic balance with magnetic suspension - one sinker; for viscosity: vibrating wire

CCC [propane]
Conditions | mass density | viscosity
373.15 K, 4515.1 kPa | 229.821 ± 0.84 kg/m3 | 0.02377 ± 0.00017 mPa·s
373.15 K, 4530.1 kPa | 241.836 ± 0.87 kg/m3 | 0.02518 ± 0.00018 mPa·s
373.15 K, 4530.2 kPa | 241.88 ± 0.87 kg/m3 | 0.02519 ± 0.00018 mPa·s
373.15 K, 4556 kPa | 256.611 ± 0.91 kg/m3 | 0.02701 ± 0.00019 mPa·s
373.15 K, 4556.1 kPa | 256.634 ± 0.91 kg/m3 | 0.027 ± 0.00019 mPa·s
373.15 K, 4576.2 kPa | 264.588 ± 0.93 kg/m3 | 0.02805 ± 0.0002 mPa·s
373.15 K, 4576.3 kPa | 264.609 ± 0.93 kg/m3 | 0.02806 ± 0.0002 mPa·s
373.15 K, 4606.1 kPa | 273.294 ± 0.96 kg/m3 and 273.287 ± 0.96 kg/m3 | 0.02925 ± 0.00021 mPa·s and 0.02926 ± 0.00021 mPa·s
373.15 K, 4657.2 kPa | 283.68 ± 0.98 kg/m3 | 0.03078 ± 0.00022 mPa·s
373.15 K, 4657.5 kPa | 283.727 ± 0.98 kg/m3 | 0.03078 ± 0.00022 mPa·s
373.15 K, 4809.3 kPa | 301.877 ± 0.71 kg/m3 | 0.03369 ± 0.00022 mPa·s
373.15 K, 4809.5 kPa | 301.894 ± 0.71 kg/m3 | 0.03367 ± 0.00022 mPa·s
373.15 K, 5105.6 kPa | 320.889 ± 0.71 kg/m3 | 0.03705 ± 0.00024 mPa·s
373.15 K, 5105.8 kPa | 320.902 ± 0.71 kg/m3 | 0.03706 ± 0.00024 mPa·s
373.15 K, 5614.7 kPa | 339.536 ± 0.74 kg/m3 | 0.04075 ± 0.00027 mPa·s
373.15 K, 5616.4 kPa | 339.584 ± 0.74 kg/m3 | 0.04077 ± 0.00027 mPa·s
373.15 K, 5652.1 kPa | 340.592 ± 0.74 kg/m3 | 0.04096 ± 0.00027 mPa·s
373.15 K, 5664.6 kPa | 340.939 ± 0.74 kg/m3 | 0.04104 ± 0.00027 mPa·s
373.15 K, 5665.9 kPa | 340.974 ± 0.74 kg/m3 | 0.04105 ± 0.00027 mPa·s
373.15 K, 6602.8 kPa | 360.84 ± 0.77 kg/m3 | 0.04555 ± 0.0003 mPa·s
373.15 K, 6603.5 kPa | 360.852 ± 0.77 kg/m3 | 0.04553 ± 0.0003 mPa·s
373.15 K, 8140.1 kPa | 381.197 ± 0.79 kg/m3 | 0.05077 ± 0.00033 mPa·s
373.15 K, 8140.4 kPa | 381.2 ± 0.79 kg/m3 | 0.05076 ± 0.00033 mPa·s
373.15 K, 10482 kPa | 401.46 ± 0.82 kg/m3 | 0.05673 ± 0.00036 mPa·s
373.15 K, 10483 kPa | 401.469 ± 0.82 kg/m3 | 0.05674 ± 0.00036 mPa·s
373.15 K, 13841 kPa | 421.334 ± 0.85 kg/m3 and 421.333 ± 0.85 kg/m3 | 0.06347 ± 0.00039 mPa·s and 0.06343 ± 0.00039 mPa·s
373.15 K, 18565 kPa | 441.166 ± 0.89 kg/m3 | 0.07127 ± 0.00044 mPa·s
373.15 K, 18567 kPa | 441.173 ± 0.89 kg/m3 | 0.07127 ± 0.00044 mPa·s
373.15 K, 25008 kPa | 460.907 ± 0.94 kg/m3 | 0.08006 ± 0.00049 mPa·s and 0.08024 ± 0.00049 mPa·s
373.15 K, 25010 kPa | 460.912 ± 0.94 kg/m3 | 0.08022 ± 0.00049 mPa·s and 0.08013 ± 0.00049 mPa·s
373.15 K, 28973 kPa | 470.682 ± 0.96 kg/m3 | 0.08526 ± 0.00052 mPa·s
373.15 K, 28975 kPa | 470.686 ± 0.96 kg/m3 | 0.08531 ± 0.00052 mPa·s and 0.08536 ± 0.00052 mPa·s and 0.0853 ± 0.00052 mPa·s
373.15 K, 29829 kPa | 472.623 ± 0.96 kg/m3 | 0.08626 ± 0.00053 mPa·s
373.15 K, 29830 kPa | 472.624 ± 0.96 kg/m3 | 0.08626 ± 0.00053 mPa·s
423.15 K, 79.37 kPa | 0.99883 ± 0.003 kg/m3 | 0.01136 ± 6.8e-05 mPa·s
423.15 K, 158.25 kPa | 1.9998 ± 0.0048 kg/m3 | 0.01137 ± 6.8e-05 mPa·s
423.15 K, 313.56 kPa | 3.9954 ± 0.0087 kg/m3 | 0.0114 ± 6.9e-05 mPa·s
423.15 K, 466.92 kPa | 5.9988 ± 0.013 kg/m3 | 0.01142 ± 6.9e-05 mPa·s
423.15 K, 467.03 kPa | 6.0003 ± 0.013 kg/m3 | 0.01143 ± 6.9e-05 mPa·s
423.15 K, 611.2 kPa | 7.9148 ± 0.017 kg/m3 | 0.01145 ± 6.9e-05 mPa·s
423.15 K, 611.47 kPa | 7.9184 ± 0.017 kg/m3 | 0.01145 ± 6.9e-05 mPa·s
423.15 K, 763.44 kPa | 9.9704 ± 0.021 kg/m3 | 0.01148 ± 6.9e-05 mPa·s
423.15 K, 763.61 kPa | 9.9726 ± 0.021 kg/m3 | 0.01148 ± 6.9e-05 mPa·s
423.15 K, 920.8 kPa | 12.133 ± 0.026 kg/m3 | 0.01151 ± 6.9e-05 mPa·s and 0.01152 ± 6.9e-05 mPa·s
423.15 K, 1060.2 kPa | 14.082 ± 0.03 kg/m3 | 0.01155 ± 7e-05 mPa·s
423.15 K, 1061.3 kPa | 14.098 ± 0.03 kg/m3 | 0.01155 ± 7e-05 mPa·s
423.15 K, 1192.7 kPa | 15.966 ± 0.034 kg/m3 | 0.01158 ± 7e-05 mPa·s
423.15 K, 1193.5 kPa | 15.977 ± 0.034 kg/m3 | 0.01158 ± 7e-05 mPa·s
423.15 K, 1334.7 kPa | 18.018 ± 0.038 kg/m3 | –

From the NIST ThermoML archive (doi:10.1021/je101178u)
